Measurements taken from patent US20250296939A1, “BENZOTHIOPHENE COMPOUND” (Kyoto Pharmaceutical Industries, Ltd., priority 2022, published 2025).

How the values were obtained:
[1] = test system: NQO1 activity in Hepa1c1c7 cells; experiment: NAD(P)H: quinone oxidoreductase-1 (NQO1) enzyme induction assay (in vitro); format: cell-based, mouse; details: Mus musculus, Hepa-1c1c7, NQO1 activity upon addition of 400 nM of test compound, about 48 hr, ratio from the base without the compound
Outline: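 Mouse Hepa1c1c7 hepatoma cells were treated with 400 nM compound for about 48 h, then lysed with digitonin/EDTA. NQO1 activity was measured as menadione-mediated MTT reduction with a G6P/G6PDH NADPH-regenerating system, stopped with dicoumarol, and read at A610. Values are the activity ratio versus untreated base wells.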

[2] = test system: NQO1 activity in rat kidney; experiment: NQO1 activity assay in rat kidney (single administration); format: in vivo; details: SD rats (male), oral 3 mg/kg single administration; for NQO1 activity 24 hr later: 24 hr after administration; for NQO1 activity 48 hr later: 48 hr after administration
Description: Experimental Example 3: NQO1 Activity Assay in Rat Kidney (Single Administration)
The test compound solution for administration was prepared by dissolving or suspending the test compound in 0.5 w/v % methylcellulose solution.
The test compound was administered orally (3 mg/kg, 2 mL/kg) to SD rats (male, Japan SLC). The solvent group was used as a control group. The test compound group was anesthetized with isoflurane 24 and 48 hr after administration, and the control group was anesthetized with isoflurane 24 hr after administration, and the rats were euthanized by abdominal aortotomy with blood release. The right kidney was immediately removed, and the renal cortex and medullary portion of the kidney were cut out for measurement of NQO1 activity.
Homogenization buffer (10 mM Tris-HCl, 250 mM sucrose, pH 7.4) and assay buffer (25 mM Tris-HCl, 0.7 mg/mL BSA, pH 7.4) were prepared.
1 mL of homogenization buffer was added to the collected kidney samples, and the organs were homogenized uniformly in ice using a Polytron homogenizer (PHYSCOTRON, Microtec Co. Ltd.) or TissueLyser II (QIAGEN). Homogenized samples were centrifuged (MX-305, TOMY) at 9000×g for 20 minutes at 4° C. The supernatant was then scalped with homogenization buffer to approximately 2 ml and ultracentrifuged (centrifuge; OptimaL-100XP, rotor; 50.4 Ti, Beckman Coulter) at 100,000×g for 60 min at 4° C. The protein concentration of the supernatant was measured with the Protein Assay BCA kit (#06385-00, Nacalai Tesque), and samples were diluted to 5 μg protein/30 μL with homogenization buffer. 2,6-Dichlorophenolindophenol (DCPIP) reaction buffer (assay buffer with 200 μM NADPH and 160 μM DCPIP, containing 1/1000 volume of DMSO or 20 μM dicoumarol DMSO solution) was prepared immediately before the measurement.
The 230 μL of each concentration of calibration solution was added to a 96-well plate (CORNING, 9017). To 30 μL of the sample solution was added 200 μL of DMSO-containing DCPIP reaction buffer or dicoumarol-containing DCPIP reaction buffer. The absorbance at 600 nm was immediately measured on a SpectraMax PLUS384 (Molecular devices) at 1 minute intervals for 10 minutes. […] A regression line was used to create the calibration curve.
The difference between the DCPIP decrease in the wells with DMSO-containing DCPIP reaction buffer and the DCPIP decrease in the wells with dicoumarol-containing DCPIP reaction buffer was divided by the amount of protein (mg) and time (min) to obtain NQO1 activity (nmol/mg/min). In Table 4 below, the NQO1 activity of the test compound-administered groups is expressed as a percentage of the control group.

[3] = target: GST-fused human Keap1 (amino acid residues: 325-642) protein (Homo sapiens (Human), UniProt Q14145); experiment: FP assay (in vitro): inhibition of binding between Nrf2 and Keap1 by fluorescence polarization; details: 20 nM GST-fused human Keap1, 10 nM FITC-labeled Nrf2 peptide, 2 hr at room temperature
Sequence of GST-fused human Keap1 (amino acid residues: 325-642) protein (Q14145 325-624 limits assumed): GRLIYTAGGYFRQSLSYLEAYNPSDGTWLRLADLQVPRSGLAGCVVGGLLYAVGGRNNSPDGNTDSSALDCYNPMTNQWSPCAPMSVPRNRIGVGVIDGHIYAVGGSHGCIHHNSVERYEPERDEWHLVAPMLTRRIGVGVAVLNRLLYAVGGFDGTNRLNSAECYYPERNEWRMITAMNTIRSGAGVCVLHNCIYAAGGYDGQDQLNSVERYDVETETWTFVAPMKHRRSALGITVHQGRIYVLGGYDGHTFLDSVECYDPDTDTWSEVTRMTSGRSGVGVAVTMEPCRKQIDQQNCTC

IC50 [3] | SMILES | fold induction at 0.4 µM [1] | NQO1 activity 24 hr later [2] | NQO1 activity 48 hr later [2]
10 to 30 nM | Cc1c([C@H](c2cc(CN3Cc4nc(O)ccc4OC4(CC4)C3)c3sccc3c2)C(C)(C)C(=O)O)ccc2c1nnn2C [Example 13, (3S)-3-(1,4-Dimethyl-1H-benzotriazol-5-yl)-3-{7-[(7′-hydroxy-3′H-spiro[cyclopropane-1,2′-pyrido[2,3-f][1,4]oxazepin]-4′(5′H)-yl)methyl]-1-benzothiophen-5-yl}-2,2-dimethylpropanoic acid] | > 5 | 6.5 percentage of the control group | 11.7 percentage of the control group
≤ 10 nM | CC[C@@H]1CN(Cc2cc([C@@H](c3ccc4c(nnn4C)c3C)C(C)(C)C(=O)O)cc3ccsc23)Cc2nc(O)ccc2O1 [Example 11, (3S)-3-(1,4-Dimethyl-1H-benzotriazol-5-yl)-3-(7-{[(2R)-2-ethyl-7-hydroxy-2,3-dihydropyrido[2,3-f][1,4]oxazepin-4(5H)-yl]methyl}-1-benzothiophen-5-yl)-2,2-dimethylpropanoic acid] | > 5 | 9.3 percentage of the control group | 11.0 percentage of the control group
10 to 30 nM | Cc1c([C@H](CC(=O)O)c2cc(CN3Cc4nc(O)ccc4O[C@H](C4CC4)C3)c3sccc3c2)ccc2c1nnn2C [Example 5, (3R)-3-(7-{[(2R)-2-Cyclopropyl-7-hydroxy-2,3-dihydropyrido[2,3-f][1,4]oxazepin-4(5H)-yl]methyl}-1-benzothiophen-5-yl)-3-(1,4-dimethyl-1H-benzotriazol-5-yl)propanoic acid] | > 5 | 9.4 percentage of the control group | 10.9 percentage of the control group
